Assay results from US20260250320A1, “LIPIDATED PEPTIDE INHIBITORS OF INTERLEUKIN-23 RECEPTOR” (Janssen Pharmaceutica NV, priority 2023, published 2026).
*1 amine or outer side, *2 acyl side, *3 side chain or, on linkers, in order; H or OH if unused. Where a SMILES comes first, the peptide text is derived from it. Bridges are numbered along the chain shown (N, C = ends). Side-chain parts run from the residue outwards. [ ]: non-standard residue; d: D form. The star is where a group is joined. X27 = C[N+](C)(CCNC(=O)COCCOCCNC(=O)COCCOCCNC(=O)CC[C@H](NC(=O)CCCCCCCCCCCCCCCCCCC(=O)O)C(=O)O)CC(=O)*; X34 = O=C(O)CCCCCCCCCCCCCCCCC(=O)C[C@@H](CCC(=O)NCCOCCOCC(=O)NCCOCCOCCN*)C(=O)O; Me3N+(CH2)2O(CH2)2O(CH2)2CO = C[N+](C)(C)CCOCCOCCC(=O)*; PEG12 = NCCOCCOCCOCCOCCOCCOCCOCCOCCOCCOCCOCCOCCC(=O)O; Trp(7-Me) = Cc1cccc2c(C[C@H](N)C(=O)O)c[nH]c12; X37 = Cc1cccc2c1CC=C2C[C@H](N[*:1])C(=O)[*:2]; C18 diacid = O=C(O)CCCCCCCCCCCCCCCCC(=O)*; γGlu = O=C(O)[C@H](CCC(=O)[*:2])N[*:1]; 2Nal = N[C@@H](Cc1ccc2ccccc2c1)C(=O)O; AEF = NCCOc1ccc(C[C@H](N)C(=O)O)cc1; X2 = C[N+](C)(C)C[C@@H](CC(=O)O)N*; 3Pal = N[C@@H](Cc1cccnc1)C(=O)O; Lys(Me) = CNCCCC[C@H](N)C(=O)O; Pen = CC(C)(S)[C@H](N)C(=O)O; Suc = O=C(CCC(=O)[*:2])[*:1]; Thp = NC1(C(=O)O)CCOCC1; X1 = C[N+](C)(C)CCCCC*; AEEA = NCCOCCOCC(=O)O; Sar = CNCC(=O)O

Assays:
IL-23R = biological target: T1, IL-23R (Homo sapiens, UniProt Q5VWK5); experiment: IL23R Reporter Assay; type: cell-based; details: HEK293 cells containing IL-23R, IL-12Rβ1 and STAT-inducible firefly luciferase reporter; 10 ng/mL IL-23 (EC90); 5 h
T1 construct: HEK293 cells containing IL-23R, IL-12Rβ1 and a firefly luciferase reporter gene driven by a STAT-inducible promoter (Promega); host or cells: HEK293
T1 sequence (Q5VWK5 24-629): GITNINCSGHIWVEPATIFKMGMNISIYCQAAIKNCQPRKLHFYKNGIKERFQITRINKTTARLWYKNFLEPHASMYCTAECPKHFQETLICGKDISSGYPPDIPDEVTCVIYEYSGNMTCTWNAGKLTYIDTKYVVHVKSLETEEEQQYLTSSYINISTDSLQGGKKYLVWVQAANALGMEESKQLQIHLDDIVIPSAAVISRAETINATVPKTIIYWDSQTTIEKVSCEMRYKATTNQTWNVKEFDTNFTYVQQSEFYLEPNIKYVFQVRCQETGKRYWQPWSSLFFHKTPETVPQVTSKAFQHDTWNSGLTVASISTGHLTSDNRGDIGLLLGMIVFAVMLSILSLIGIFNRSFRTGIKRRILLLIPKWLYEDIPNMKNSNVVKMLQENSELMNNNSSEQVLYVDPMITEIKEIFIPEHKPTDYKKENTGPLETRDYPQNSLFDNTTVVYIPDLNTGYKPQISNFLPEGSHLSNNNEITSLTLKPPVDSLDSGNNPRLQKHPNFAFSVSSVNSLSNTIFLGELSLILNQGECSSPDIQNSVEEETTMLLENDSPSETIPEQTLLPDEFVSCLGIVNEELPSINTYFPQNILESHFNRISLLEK
Method in brief: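 IC50 values were fitted with a 4-parameter Hill equation to luciferase signal, scaled between IL-23-only wells (0% inhibition) and 30 μM reference inhibitor (100%). The readout was a STAT-inducible reporter in IL-23R/IL-12Rβ1 HEK293 cells, stimulated with added 10 ng/mL IL-23 (EC90) for 5 h at 37° C and developed with BioGlo.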

[1] = test system: IL-23-stimulated phosphorylated STAT3 in peripheral blood mononuclear cells (PBMCs); experiment: PBMC pSTAT3 Assay; type: cell-based; details: PBMCs from healthy donors; 30 min preincubation with peptide; IL-23 5 ng/mL for 30 min; phospho-STAT3 by MSD
Method in brief: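 Phospho-STAT3 quantified by Meso Scale assay in lysates of PBMCs exposed to IL-23 (5 ng/mL, 30 min, 37 °C) after 30 min peptide pretreatment. Cells were cryopreserved donor PBMCs activated 4 days with anti-CD3 plus IL-1β (100 ng/mL) and starved ~4 h; IC50 reported.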

CC(=O)N(C)CCCC[C@@H]1NC(=O)[C@H](Cc2c[nH]c3c(C)cccc23)NC(=O)[C@H]([C@@H](C)O)NC(=O)[C@H](CC(=O)N(C)C)NC(=O)[C@@H](NC(=O)COCCOCCNC(=O)COCCOCCNC(=O)CC[C@H](NC(=O)CCCCCCCCCCCCCCCCC(=O)O)C(=O)O)C(C)(C)SSC(C)(C)[C@@H](C(=O)N[C@@H](Cc2ccc(OCCCCC[N+](C)(C)C)cc2)C(=O)N[C@@H](Cc2ccc3ccccc3c2)C(=O)NC2(C(=O)N[C@@H](CCCCN(C)C(C)=O)C(=O)N[C@@H](CC(N)=O)C(=O)N[C@@H](Cc3cccnc3)C(=O)N(C)CC(=O)N(C)C)CCOCC2)NC1=O [compound 118, HOC18gEPEG2PEG2CO-Pen(3)-N(N(Me)2)-T-7MeW-K(NMeAc)-Pen(3)-TMAPF-2Nal-THP-K(NMeAc)-N-3Pya-Sar-CON(Me)2] ({C18 diacid-γGlu-AEEA-AEEA}-[Pen]D(NMe2)T[Trp(7-Me)][Lys(Me)](Ac)[Pen]Y(X1)[2Nal][Thp][Lys(Me)](Ac)N[3Pal][Sar]-NMe2; disulfide 1-6)
IC50 (IL-23R): < 50 nM
IC50 [1]: < 0.5 nM

CC(=O)N(C)CCCC[C@H](NC(=O)C1(NC(=O)[C@H](Cc2ccc3ccccc3c2)NC(=O)[C@H](Cc2ccc(OCCCCC[N+](C)(C)C)cc2)NC(=O)[C@H]2NC(=O)[C@H](CCCCNC(=O)CCOCCOCCOCCOCCOCCOCCOCCOCCOCCOCCOCCOCCNC(=O)CC[C@H](NC(=O)CCCCCCCCCCCCCCCCC(=O)O)C(=O)O)NC(=O)[C@H](CC3=CCc4c(C)cccc43)NC(=O)[C@H]([C@@H](C)O)NC(=O)[C@H](CC(=O)N(C)C)NC(=O)[C@@H](NC(=O)CCOCCOCC[N+](C)(C)C)C(C)(C)SSC2(C)C)CCOCC1)C(=O)N[C@@H](CC(N)=O)C(=O)N[C@@H](Cc1cccnc1)C(=O)N(C)CC(=O)N(C)C [compound 124, cPEG3aCO-Pen(3)-N(N(Me)2)-T-7MeW-K(PEG12gEC18OH)-Pen(3)-TMAPF-2Nal-THP-K(NMeAc)-N-3Pya-Sar-CON(Me)2] ({Me3N+(CH2)2O(CH2)2O(CH2)2CO}-[Pen]D(NMe2)T[X37]K([PEG12-γGlu-C18 diacid])[Pen]Y(X1)[2Nal][Thp][Lys(Me)](Ac)N[3Pal][Sar]-NMe2; disulfide 1-6)
IC50 (IL-23R): < 50 nM
IC50 [1]: < 0.5 nM

C=C(O)[C@H](CCC(=O)NCCOCCOCC(=O)NCCOCCOCC(=O)NCCCC[C@H](NC(=O)CN(C)C(=O)[C@H](Cc1cccnc1)NC(=O)[C@H](CC(N)=O)NC(=O)[C@H](CCCCNC(=O)CCC(=O)N[C@H](CC(=O)O)C[N+](C)(C)C)NC(=O)C1(NC(=O)[C@H](Cc2ccc3ccccc3c2)NC(=O)[C@H](Cc2ccc(OCCN)cc2)NC(=O)[C@H]2NC(=O)[C@H](CCCCNC(C)=O)NC(=O)[C@H](Cc3c[nH]c4c(C)cccc34)NC(=O)[C@H]([C@@H](C)O)NC(=O)[C@H](CC(N)=O)NC(=O)[C@@H](NC(C)=O)C(C)(C)SSC2(C)C)CCOCC1)C(N)=O)NC(=O)CCCCCCCCCCCCCCCCC(=O)O [compound 50, MeCO-Pen(3)-N-T-7MeW-K(Ac)-Pen(3)-AEF-2Nal-THP-K(d)-N-3Pya-Sar-K(PEG2PEG2gEC18OH)-CONH2]
IC50 (IL-23R): 50 to 500 nM
IC50 [1]: < 0.5 nM

CC(=O)N(C)CCCC[C@@H]1NC(=O)[C@H](Cc2c[nH]c3c(C)cccc23)NC(=O)[C@H]([C@@H](C)O)NC(=O)[C@H](CC(=O)N(C)C)NC(=O)[C@@H](NC(=O)CCOCCOCC[N+](C)(C)C)C(C)(C)SSC(C)(C)[C@@H](C(=O)N[C@@H](Cc2ccc(OCCCCC[N+](C)(C)C)cc2)C(=O)N[C@@H](Cc2ccc3ccccc3c2)C(=O)NC2(C(=O)N[C@@H](CCCCN(C)C(C)=O)C(=O)N[C@@H](CC(N)=O)C(=O)N[C@@H](Cc3cccnc3)C(=O)N(C)CC(=O)NCCOCCOCCNC(=O)COCCOCCNC(=O)CC[C@H](CC(=O)CCCCCCCCCCCCCCCCC(=O)O)C(=O)O)CCOCC2)NC1=O [compound 145, cPEG3aCO-Pen(3)-N(N(Me)2)-T-7MeW-K(NMeAc)-Pen(3)-TMAPF-2Nal-THP-K(NMeAc)-N-3Pya-Sar-CO(PEG2PEG2gEC18OH)] ({Me3N+(CH2)2O(CH2)2O(CH2)2CO}-[Pen]D(NMe2)T[Trp(7-Me)][Lys(Me)](Ac)[Pen]Y(X1)[2Nal][Thp][Lys(Me)](Ac)N[3Pal][Sar]-X34; disulfide 1-6)
IC50 (IL-23R): 50 to 500 nM
IC50 [1]: ≥ 5 nM

CC(=O)N(C)CCCC[C@@H]1NC(=O)[C@H](Cc2c[nH]c3c(C)cccc23)NC(=O)[C@H]([C@@H](C)O)NC(=O)[C@H](CC(=O)N(C)C)NC(=O)[C@@H](NC(=O)CCOCCOCC[N+](C)(C)C)C(C)(C)SSC(C)(C)[C@@H](C(=O)N[C@@H](Cc2ccc(OCCNC(=O)C[N+](C)(C)CCNC(=O)COCCOCCNC(=O)COCCOCCNC(=O)CC[C@H](NC(=O)CCCCCCCCCCCCCCCCCCC(=O)O)C(=O)O)cc2)C(=O)N[C@@H](Cc2ccc3ccccc3c2)C(=O)NC2(C(=O)N[C@@H](CCCCN(C)C(C)=O)C(=O)N[C@@H](CC(N)=O)C(=O)N[C@@H](Cc3cccnc3)C(=O)N(C)CC(=O)N(C)C)CCOCC2)NC1=O [compound 151, cPEG3aCO-Pen(3)-N(N(Me)2)-T-7MeW-K(NMeAc)-Pen(3)-AEF(SP6PEG2PEG2gEC20OH)-2Nal-THP-K(NMeAc)-N-3Pya-Sar-CON(Me)2] ({Me3N+(CH2)2O(CH2)2O(CH2)2CO}-[Pen]D(NMe2)T[Trp(7-Me)][Lys(Me)](Ac)[Pen][AEF](X27)[2Nal][Thp][Lys(Me)](Ac)N[3Pal][Sar]-NMe2; disulfide 1-6)
IC50 (IL-23R): < 50 nM
IC50 [1]: < 0.5 nM

CC(=O)NCCCC[C@@H]1NC(=O)[C@H](CC2CNc3c(C)cccc32)NC(=O)[C@H]([C@@H](C)O)NC(=O)[C@H](CC(N)=O)NC(=O)[C@@H](NC(=O)CCOCCOCC[N+](C)(C)C)C(C)(C)SSC(C)(C)[C@@H](C(=O)N[C@@H](Cc2ccc(OCCN)cc2)C(=O)N[C@@H](Cc2ccc3ccccc3c2)C(=O)NC2(C(=O)N[C@@H](CCCCNC(=O)COCCOCCNC(=O)COCCOCCNC(=O)CC[C@H](NC(=O)CCCCCCCCCCCCCCCCC(=O)O)C(=O)O)C(=O)N[C@@H](CC(N)=O)C(=O)N[C@@H](Cc3cccnc3)C(=O)N(C)CC(N)=O)CCOCC2)NC1=O (stereo partly drawn) [compound 78, cPEG3aCO-Pen(3)-N-T-7MeW-K(Ac)-Pen(3)-AEF-2Nal-THP-K(PEG2PEG2gEC18OH)-N-3Pya-Sar-CONH2]
IC50 (IL-23R): 50 to 500 nM
IC50 [1]: < 0.5 nM

CC(=O)NCCCC[C@@H]1NC(=O)[C@H](Cc2c[nH]c3c(C)cccc23)NC(=O)[C@H]([C@@H](C)O)NC(=O)[C@H](CC(N)=O)NC(=O)[C@@H](NC(C)=O)C(C)(C)SSC(C)(C)[C@@H](C(=O)N[C@@H](Cc2ccc(OCCN)cc2)C(=O)N[C@@H](Cc2ccc3ccccc3c2)C(=O)NC2(C(=O)N[C@@H](CCC(=O)O)C(=O)N[C@@H](CC(N)=O)C(=O)N[C@@H](Cc3cccnc3)C(=O)N(C)CC(=O)N[C@@H](CCCCNC(=O)COCCOCCNC(=O)COCCOCCNC(=O)CC[C@H](NC(=O)CCCCCCCCCCCCCCCCC(=O)O)C(=O)O)C(N)=O)CCOCC2)NC1=O [compound 160, cPEG3aCO-r-Pen(3)-N-T-7MeW-K(Ac)-Pen(3)-AEF-2Nal-THP-E-N-3Pya-Sar-K(PEG2PEG2gEC18OH)-CONH2]
IC50 (IL-23R): 50 to 500 nM
IC50 [1]: < 0.5 nM

CC(=O)NCCCC[C@@H]1NC(=O)[C@H](Cc2c[nH]c3c(C)cccc23)NC(=O)[C@H]([C@@H](C)O)NC(=O)[C@H](CC(N)=O)NC(=O)[C@@H](NC(=O)[C@@H](CCCCNC(=O)COCCOCCNC(=O)COCCOCCNC(=O)CC[C@H](NC(=O)CCCCCCCCCCCCCCCCC(=O)O)C(=O)O)NC(C)=O)C(C)(C)SSC(C)(C)[C@@H](C(=O)N[C@@H](Cc2ccc(OCCN)cc2)C(=O)N[C@@H](Cc2ccc3ccccc3c2)C(=O)NC2(C(=O)N[C@@H](CCCCNC(=O)CCC(=O)N[C@H](CC(=O)O)C[N+](C)(C)C)C(=O)N[C@@H](CC(N)=O)C(=O)N[C@@H](Cc3cccnc3)C(=O)N(C)CC(N)=O)CCOCC2)NC1=O [compound 33, MeCO-k(PEG2PEG2gEC18OH)-Pen(3)-N-T-7MeW-K(Ac)-Pen(3)-AEF-2Nal-THP-K(d)-N-3Pya-Sar-CONH2] (Ac-[dK]([AEEA-AEEA-γGlu-C18 diacid])[Pen]NT[Trp(7-Me)]K(Ac)[Pen][AEF][2Nal][Thp]K([Suc-X2])N[3Pal][Sar]-NH2; disulfide 2-7)
IC50 (IL-23R): < 50 nM
IC50 [1]: < 0.5 nM
